From patent publication US11390617B2, “Methods of treating non-Hodgkin lymphoma using 2-(2,6-dioxopiperidin-3-yl)-4-((2-fluoro-4-((3-morpholinoazetidin-1-yl)methyl)benzyl)amino)isoindoline-1,3-dione” (Celgene Corporation, priority 2019, dated 2022)

How the values were obtained:
Oci-Ly10 DoxoR = assay: Viability/apoptosis flow cytometry assay, DLBCL cell lines with acquired resistance to doxorubicin and parental lines; format: cell-based; settings: 120 hours
Experimental: (§1) The following exemplary anti-proliferative assay uses exemplary DLBCL cell lines with acquired resistance to doxorubicin (Table 7). The in vitro growth inhibitory activity of Compound described herein was evaluated using a 384-well flow cytometry assay. The activity of Compound 1 was also evaluated in cell lines with acquired resistance to doxorubicin (one of the curative agents in the DLBCL standard of care regimen R-CHOP [rituximab, cyclophosphamide, doxorubicin, vincristine, and prednisone]) (Table 7).
(§2) The cell lines in Table 7 were plated in 96-well flat bottom plates and assessed with increasing concentrations of compound ranging from 0.0015 to 10 μM or dimethyl sulfoxide (DMSO) control. The final concentration of DMSO was 0.1% (v/v). Following the addition of Compound 1 or DMSO and incubation for 120 hours, cell number and cell death were analyzed by flow cytometry (Attune®, Thermo Fisher) using Annexin V and the vital dye, 7-AAD. Phosphatidylserine translocates from the inner layer to the outer layer of the cell membrane early in apoptosis and Annexin V binds to the exposed phosphatidylserine found on the surface of an apoptotic cell. The dye 7-AAD is excluded by intact live cells and only stains cells that have died as a result of apoptosis or necrosis.
(§3) Flow cytometry data analysis was then performed using the Flow Jo_v10 software to determine the number of viable cells (Annexin V and 7-AAD double negative staining cells) and percentage of apoptotic cells (Annexin V positive cells) for each condition. The live cell count for every concentration was normalized to the DMSO control (considered as 100%) to calculate the percentage of viable cells remaining after treatment and graphed using GraphPad Prism 7.03. The IC50 (50% inhibitory concentration) and Emax (maximum efficacy eliminating tumor cells achieved) values were then calculated by performing nonlinear regression curve fitting using log(inhibitor) vs. normalized response—variable slope analysis on GraphPad Prism 7.03. Area under the curve (AUC) was calculated by performing area under curve analysis on GraphPad Prism 7.03. Similarly, for apoptosis analysis, the percentage of apoptosis combining both “early” (Annexin V positive and 7-AAD negative) and “late” apoptosis (Annexin V and 7-AAD positive) cell gates relative to DMSO was graphed using GraphPad Prism 7.03. The AUC, EC50 (concentration of Compound 1 that produces half-maximal apoptosis response) and Ymax (maximal percentage of apoptosis achieved) values from apoptosis curves were calculated by performing area under curve analysis and nonlinear regression curve fitting using log(agonist) vs. normalized response—Variable slope analysis on GraphPad Prism 7.03.
(§4) In Table 8, dose-response proliferation curves for the cell lines with acquired resistance to doxorubicin and non-linear curve-fit regression were used to determine IC50, AUC, and Emax for % viable cells (Emax for viability varies between 100 at low doses and 0 at high doses, which corresponds to inhibition of all viable cells), and dose-response apoptosis curves were used to determine the EC50, AUC, and Ymax for % apoptosis (Ymax for apoptosis varies from 0 at low doses and 100 at higher doses which corresponds to death of all cells). Tumor cells were exposed to serial dilutions (0.00015 to 10 μM) of Compound 1 or dimethyl sulfoxide (DMSO) control for 5 days. Viability and apoptosis for all cell lines was determined by Annexin V/7-aminoactinomycin D (7-AAD) flow cytometry.

Oci-Ly10 Parental = assay: as above; format: cell-based; settings: 120 hours
Experimental: as §1, §2, §3, §4

SUDHL4 DoxoR = assay: as above; format: cell-based
Experimental: as §1, §2, §3, §4

SUDHL4 Parental = assay: as above; format: cell-based
Experimental: as §1, §2, §3, §4

U2932 DoxoR = assay: as above; format: cell-based; settings: 120 hours
Experimental: as §1, §2, §3, §4

U2932 Parental = assay: as above; format: cell-based; settings: 120 hours
Experimental: as §1, §2, §3, §4

WSU-DLCL2 DoxoR = assay: as above; format: cell-based
Experimental: as §1, §2, §3, §4

WSU-DLCL2 Parental = assay: as above; format: cell-based
Experimental: as §1, §2, §3, §4

[1] = test system: lymphoma cell lines WSU-DLCL2, SU-DHL6, and RL; assay: NK mediated cell killing (ADCC) with rituximab; format: cell-based, human; settings: NK cells pre-treated with Compound 1 100 nM 18 hours; rituximab 7.5 ug/mL, 4 hours
Experimental: Commercial purified NK cells isolated from human peripheral blood mononuclear cell (PBMC) were seeded at a concentration of 10^6 cells/mL, cultured in media supplemented with 10 ng/mLrhIL-2 and treated with Compound 1 (100 nM) for 18 hours at 37° C. prior to cytotoxicity assays. Target lymphoma cell lines were added to the pre-treated effector NK cells at a 1:10 (target:effector) cell ratio for WSU-DLCL2 and RL lines or 1:3 for SU-DHL6. At the time of co-culture, rituximab or isotype control at 7.5 ug/mL were added to the media and cells were incubated for 4 hours at 37° C. Then, cells were collected, stained with CD20, Annexin V and 7AAD and analyzed by FACS.

[2] = Homo sapiens, read-out: IC50 (% Viable Cells)
[3] = Homo sapiens, SU-DHL-4, 120 hours
[4] = Homo sapiens, WSUDLCL2, 120 hours
[5] = Homo sapiens, WSUDLCL2, 120 hours, read-out: IC50 (% Viable Cells)

O=C1CC[C@H](N2C(=O)c3cccc(NCc4ccc(CN5CC(N6CCOCC6)C5)cc4F)c3C2=O)C(=O)N1 [Compound 1, (S)-2-(2,6-dioxopiperidin-3-yl)-4-((2-fluoro-4-((3-morpholinoazetidin-1-yl)methyl)benzyl)amino)isoindoline-1,3-dione]
AUC (% Viable Cells) (Oci-Ly10 DoxoR): 211.8
AUC (Apoptosis) (Oci-Ly10 DoxoR): 27
Emax (% Viable Cells) (Oci-Ly10 DoxoR): 25%
Ymax (Apoptosis) (Oci-Ly10 DoxoR): 19.48%
EC50 (Oci-Ly10 DoxoR; Homo sapiens): 0.64 µM
IC50 (Oci-Ly10 DoxoR; [2]): 0.09 µM
AUC (% Viable Cells) (Oci-Ly10 Parental): 285.5
AUC (Apoptosis) (Oci-Ly10 Parental): 13
Emax (% Viable Cells) (Oci-Ly10 Parental): 52%
Ymax (Apoptosis) (Oci-Ly10 Parental): 10.12%
EC50 (Oci-Ly10 Parental; Homo sapiens): 0.81 µM
IC50 (Oci-Ly10 Parental; [2]): 0.2 µM
AUC (% Viable Cells) (SUDHL4 DoxoR; 120 hours): 182.4
AUC (Apoptosis) (SUDHL4 DoxoR; 120 hours): 84
Emax (% Viable Cells) (SUDHL4 DoxoR; 120 hours): 7.5%
Ymax (Apoptosis) (SUDHL4 DoxoR; 120 hours): 63.5%
EC50 (SUDHL4 DoxoR; [3]): 0.4 µM
IC50 (SUDHL4 DoxoR; Homo sapiens, SU-DHL-4, 120 hours, read-out: IC50 (% Viable Cells)): 0.072 µM
AUC (% Viable Cells) (SUDHL4 Parental; 120 hours): 335
AUC (Apoptosis) (SUDHL4 Parental; 120 hours): 6
Emax (% Viable Cells) (SUDHL4 Parental; 120 hours): 75%
Ymax (Apoptosis) (SUDHL4 Parental; 120 hours): 3.7%
EC50 (SUDHL4 Parental; [3]): 0.2 µM
AUC (% Viable Cells) (U2932 DoxoR): 256
AUC (Apoptosis) (U2932 DoxoR): 15.7
Emax (% Viable Cells) (U2932 DoxoR): 27.7%
Ymax (Apoptosis) (U2932 DoxoR): 16%
EC50 (U2932 DoxoR; Homo sapiens): 1.12 µM
IC50 (U2932 DoxoR; [2]): 0.25 µM
AUC (% Viable Cells) (U2932 Parental): 193
AUC (Apoptosis) (U2932 Parental): 45.5
Emax (% Viable Cells) (U2932 Parental): 28.4%
Ymax (Apoptosis) (U2932 Parental): 30%
EC50 (U2932 Parental; Homo sapiens): 0.44 µM
IC50 (U2932 Parental; [2]): 0.03 µM
AUC (% Viable Cells) (WSU-DLCL2 DoxoR; 120 hours): 195.9
AUC (Apoptosis) (WSU-DLCL2 DoxoR; 120 hours): 74.4
Emax (% Viable Cells) (WSU-DLCL2 DoxoR; 120 hours): 8.4%
Ymax (Apoptosis) (WSU-DLCL2 DoxoR; 120 hours): 57%
EC50 (WSU-DLCL2 DoxoR; [4]): 0.4 µM
IC50 (WSU-DLCL2 DoxoR; [5]): 0.07 µM
AUC (% Viable Cells) (WSU-DLCL2 Parental; 120 hours): 166.7
AUC (Apoptosis) (WSU-DLCL2 Parental; 120 hours): 51
Emax (% Viable Cells) (WSU-DLCL2 Parental; 120 hours): 28%
Ymax (Apoptosis) (WSU-DLCL2 Parental; 120 hours): 29.5%
EC50 (WSU-DLCL2 Parental; [4]): 0.32 µM
IC50 (WSU-DLCL2 Parental; [5]): 0.01 µM
rituximab cytotoxicity of lymphoma cell lines (NK mediated cell killing, ADCC) [1]: able to increase rituximab cytotoxicity of lymphoma cell lines
